Source: patent US9173917B2, “Methods for reducing oxidative stress in a cell with a sulfhydryl protected glutathione prodrug” (Max International, LLC, priority 2003, dated 2015)
“Also recorded” adds a separate entry of the source.

How the values were obtained:
[1] = system: ACP-induced hepatotoxicity; assay: Protection from ACP-induced hepatotoxicity in mice (plasma ALT levels); format: in vivo, Male Swiss-Webster mice
Procedure: Male Swiss-Webster mice weighing 24-34 g were administered ACP [360 mg (or 2.45 mmol)/kg, i.p.].
In protocol 4′B, a priming dose of the prodrug (1.25 mmole/kg, i.p.) was administered 60 min prior to ACP followed by a subsequent dose (2.50 mmol/kg) 30 min post-ACP.
In protocol 3′B, the pre- and post-ACP doses were reversed.
In protocol 1, a single dose of drug was administered 30 min post-ACP.
Protocol 1′ is identical to 3′B except that the pH of the injection solution was not adjusted. In the B series, the pH of the injection solution was adjusted to neutrality with dilute, aqueous NaOH or HCl

[2] = unlike GSH or its carboxy esters with free -SH groups that are subject to oxidation; refs (9, 17); cited from earlier work

Question: For `CCOC(=O)CNC(=O)C(CSC(C)=O)NC(=O)CCC(N)C(=O)O` (stereo not shown) [S-Ac-GSH-OEt, S-acetylglutathione ethyl ester], which “usefulness for treating/preventing oxidative stress in the mouse model” value ([1]; FIGS. 1, 3 and 4) is on record?
Answer: The value was “useful for treating oxidative stress”.

Question: With `N[C@H](CSSC[C@H](NC(=O)CC[C@H](N)C(=O)O)C(=O)NCC(=O)O)C(=O)O` [D-CySSG] as the compound, how does the “hepatoprotection against ACP toxicity” value ([1]; FIG. 1, mouse model, protocol 4'B) read?
Answer: Its value is “lack of significant activity; also recorded: not hepatoprotective; also recorded: lack of hepatoprotection”.

Question: And the “plasma alanine aminotransferase (ALT) levels of ACP-treated mice” value ([1]; FIG. 1, protocol 4'B: prodrug 1.25 mmole/kg i.p. 60 min prior to ACP, 2.50 mmol/kg 30 min post-ACP, ACP 360 mg/kg i.p., ALT 24 hrs post-ACP)?
Answer: Its value is “statistically similar to that for ACP alone; also recorded: comparable to that for ACP alone”.

Question: Which stability [2] does the source give for `N[C@@H](CCC(=O)N[C@@H](CSSC[C@H](N)C(=O)O)C(=O)NCC(=O)O)C(=O)O` [L-CySSG, L-cysteine-GSH disulfide] here?
Answer: The stability was “stable”.
